Patent US6486201B1, “Agarofuan derivatives, their preparation, pharmaceutical composition containing them and their use as medicine” (Institute of Materia Medica, Chinese Academy of Medical …, priority 1998, dated 2002)
Each block holds one molecule with its values, some of them ahead of it.

Experiments:
[1] = tested on: Wistar rats; assay: Elevated plus maze test on rats; format: in vivo, rat; conditions: for total time of staying on the opened arm (sec. in 5 min.): in 2% lecithin, n 12
From the text: The elevated plus-maze test has been used by Pellow, S. And File, SE. for anti-anxiety model in rats. It is one of the most widely used models for anxiolytics. The elevated plus maze has two cross arms, one is an opened arm (50*10 cm, length, width), another is a closed arm (50×10×40 cm, length, width, height) and the maze is 50 cm above the floor during experiment. The rat for experiment is put on the opening at the cross point (10×10) of the two arms, and may freely choose to enter either opened or closed arm.
Wistar rats of 160±20 g body weight were used, and divided randomly into 8 groups, 12 in each group. Handling adaptability training was carried out one week before the experiment. In the experiment, AF-5 in 2% lecithin of the doses listed in Table 1 was given to rats which were fasted for 12 hours before experiment. After administration, the rat was put on the center opening of the elevated plus headed to opened arm, and times of entering the opened arm, total time of staying on the opened arm, and times of shuttling inside the closed arm were recorded.

[2] = tested on: Wistar rats; assay: Social interaction test on rats; format: in vivo, rat; conditions: mean ± SD; for total time of interaction, 0-9 (minutes): high illuminance unfamiliar conditions (HU); for interaction time (sec. in 9 min): 2 mg/kg ip, HU
Protocol: The rats (Wistar, 160±20 g) for experiment were individually housed in chambers (55×55×40 cm), and handling adaptability and injection training were carried out twice a day 2 weeks before experiment. One day before experiment, the rats were weighed, labeled and grouped at random in pairs but still separated-until experiment. In experiment, 8 pairs of rats were given AF-5 in 2% lecithin (2% lecithin as control), and the total time of interaction was recorded including smelling, licking, leaning against, grabbing, chasing, biting, following, kicking, hitting etc. The experiment conditions were high illuminance with unfamiliar conditions (HU), low illuminance with unfamiliar conditions, high illuminance with familiar conditions and low illuminance with familiar conditions T-test was used to determine the significance between the test group and control group (Table 3, 4).

[3] = tested on: Kunming mice; assay: Forced swimming test on mice (anti-depression activity); format: in vivo, mouse; conditions: for time of immobile phase (sec/4 min): mean ± SD
Protocol: The experiment used Kunming mice of China, male, 18-21 g of body weight. […]
The water in experiment vessel was 12 cm in depth, 12.5 cm in diameter and kept at 26° C. Each mouse was put in the water and forced to swim for 6 min in which total immobile time in the last 4 min was recorded, and the significance between experiment group and control group was tested by T value (Table 5).

[4] = tested on: mice; assay: Single dose toxicity in mice; format: in vivo
From the text: One week alive rate was 100%. The possible durable dosage was 2.4 g/kg by P.O. and two week alive rate was 100% at this dosage.

[5] = tested on: Wistar rats; assay: Elevated plus maze test on rats; format: in vivo, rat; conditions: 32 mg/kg ip, in 2% lecithin, mean ± SD, n 4
[6] = 2 mg/kg ip, time 5 minutes, mean ± SE
[7] = 2 mg/kg ip, time 15 minutes, mean ± SE
[8] = 2 mg/kg ip, time 30 minutes, mean ± SE
[9] = 2 mg/kg ip, time 60 minutes, mean ± SE
[10] = 2 mg/kg ip, time 90 minutes, mean ± SE

melting point: 64 to 66 °C
Compound: CCCC[C@H]1C(=O)CC[C@@]2(C)CC[C@@H]3C[C@]12OC3(C)C [Example 23, (1S,2R,6R,9R)6,10,10-Trimethyl-2-butyl-11-oxatricyclo[7.2.1.0^1,6]dodecan-3-one]

melting point: 131 to 133 °C
Compound: CC1(C)O[C@]23C[C@H]1CC[C@]2(C)CCC=C3Cc1ccc(F)cc1 [Example 8, (1R,6S,9R)6,10,10-Trimethyl-2-(4-flurobenzyl)-11-oxatricyclo[7.2.1.0^1,6]dodec-2-ene]

melting point: 59 to 62 °C
Compound: CC(=O)CCC1=CCC[C@@]2(C)CC[C@@H]3C[C@]12OC3(C)C [Example 29, (1R,6S,9R)6,10,10-Trimethyl-2-(3-oxobutyl)-11-oxatricyclo[7.2.1.0^1,6]dodec-2-ene]

melting point: 34 to 36 °C
Compound: CC1(C)O[C@]23C[C@H]1CC[C@]2(C)CCC=C3CCO [Example 11, (1R,6S,9R)6,10,10-Trimethyl-2-(2-hydroxyethyl)-11-oxatricyclo[7.2.1.0^1,6]dodec-2-ene]

melting point: 68 to 70 °C
Compound: CC1(C)O[C@]23C[C@H]1CC[C@]2(C)CC[C@](C)(O)C3 [Example 24, (1S,3S,6R,9R)3,6,10,10-Tetramethyl-3-hydoxy-11-oxatricyclo[7.2.1.0^1,6]dodecane]

melting point: 90 to 92 °C
Compound: CCCC[C@@]1(O)CCC[C@@]2(C)CC[C@@H]3C[C@@]21OC3(C)C [Example 21, (1R,2R,6S,9R)6,10,10-Trimethyl-2-butyl-2-hydroxy-11-oxatricyclo[7.2.1.0^1,6]dodecane]

melting point: 49 to 50 °C
Compound: CC1(C)O[C@]23C[C@H]1CC[C@]2(C)CCC=C3Cc1ccccc1 [Example 7, (1R,6S,9R)6,10,10-Trimethyl-2-benzyl-11-oxatricyclo[7.2.1.0^1,6]dodec-2-ene]

melting point: 38 to 39 °C
Compound: CC1=C[C@@]23C[C@@H](CC[C@]2(C)CC1)C(C)(C)O3 [Example 32, (1S,6R,9R)3,6,10,10-Tetramethyl-11-oxatricyclo[7.2.1.0^1,6]dodec-2-ene]

melting point: 38 to 39 °C
Compound: CC(C)CCC1=CCC[C@@]2(C)CC[C@@H]3C[C@]12OC3(C)C [Example 5, (1R,6S,9R)6,10,10-Trimethyl-2-isopentyl-11-oxatricyclo[7.2.1.0^1,6]dodec-2-ene]

Compound: CCCCC1=CCC[C@@]2(C)CC[C@@H]3C[C@]12OC3(C)C [AF-5, (1R,6S,9R)6,10,10-Trimethyl-2-butyl-11-oxatricyclo[7.2.1.0^1,6]dodec-2-ene]
Times of shuttling ([1]; 0.5 mg/kg ip, 5 min, closed arm, mean ± SD): 2.5 | total time of staying on the opened arm (sec. in 5 min.) ([1]; 0.5 mg/kg ip, 5 min, mean ± SD): 23 sec. in 5 min. | Times of shuttling ([1]; 1 mg/kg ip, 5 min, closed arm, mean ± SD): 2.8 | total time of staying on the opened arm (sec. in 5 min.) ([1]; 1 mg/kg ip, 5 min, mean ± SD): 25 + sec. in 5 min. | Times of shuttling ([1]; 2 mg/kg ip, 5 min, closed arm, mean ± SD): 2.8 | total time of staying on the opened arm (sec. in 5 min.) ([1]; 2 mg/kg ip, 5 min, mean ± SD): 36 sec. in 5 min. | Time in opened arm [1, 6]: 4.4 | Times of shuttling [1, 6]: 3.0 | Time in opened arm [1, 7]: 6.1 | Times of shuttling [1, 7]: 4.1 | Time in opened arm [1, 8]: 7.9 | Times of shuttling [1, 8]: 6.6 | Time in opened arm [1, 9]: 20.8 | Times of shuttling [1, 9]: 5.6 | Time in opened arm [1, 10]: 1.27 | Times of shuttling [1, 10]: 3.7 | Times of shuttling ([1]; 4 mg/kg ip, 5 min, closed arm, mean ± SD): 2.3 | total time of staying on the opened arm (sec. in 5 min.) ([1]; 4 mg/kg ip, 5 min, mean ± SD): 30 sec. in 5 min. | Times of shuttling ([1]; 8 mg/kg ip, 5 min, closed arm, mean ± SD): 1.3 | total time of staying on the opened arm (sec. in 5 min.) ([1]; 8 mg/kg ip, 5 min, mean ± SD): 14 sec. in 5 min. | Times of shuttling ([1]; 16 mg/kg ip, 5 min, closed arm, mean ± SD): 4.2 | total time of staying on the opened arm (sec. in 5 min.) ([1]; 16 mg/kg ip, 5 min, mean ± SD): 9.8 sec. in 5 min. | Times of shuttling ([1]; 32 mg/kg ip, 5 min, closed arm, mean ± SD): 3.0 | anti-anxiety activity in elevated plus maze test (in words) ([1]; rats, dose-effect): antianxiety activity with a wide dosage range | total time of interaction, 0-9 (minutes) ([2]; 0.125 mg/kg): 1.93 min | total time of interaction, 0-9 (minutes) ([2]; 0.25 mg/kg): 2.28 min | total time of interaction, 0-9 (minutes) ([2]; 0.5 mg/kg): 3.65 min | total time of interaction, 0-9 (minutes) ([2]; 1.0 mg/kg): 4.02 min | interaction time (sec. in 9 min) ([2]; time 5 minutes): 98 sec. in 9 min | interaction time (sec. in 9 min) ([2]; time 15 minutes): 143 sec. in 9 min | interaction time (sec. in 9 min) ([2]; time 30 minutes): 103 sec. in 9 min | interaction time (sec. in 9 min) ([2]; time 60 minutes): 166 sec. in 9 min | interaction time (sec. in 9 min) ([2]; time 90 minutes): 112 sec. in 9 min | total time of interaction, 0-9 (minutes) ([2]; 2.0 mg/kg): 3.25 min | total time of interaction, 0-9 (minutes) ([2]; 4.0 mg/kg): 3.23 min | time of immobile phase (sec/4 min) ([3]; P.O. three times a day (24, 5, 0.5 hours before experiment), 0.5 mg/kg): 90 ± 25 sec/4 min | time of immobile phase (sec/4 min) ([3]; P.O. three times a day (24, 5, 0.5 hours before experiment), 1.5 mg/kg): 60 ± 30 sec/4 min | time of immobile phase (sec/4 min) ([3]; P.O. three times a day (24, 5, 0.5 hours before experiment), 5.0 mg/kg): 83 ± 35 sec/4 min | time of immobile phase (sec/4 min) ([3]; P.O. three times a day (24, 5, 0.5 hours before experiment), 15.0 mg/kg): 74 ± 41 sec/4 min | time of immobile phase (sec/4 min) ([3]; P.O., s.i.d. × 21 days, 5.0 mg/kg): 84 ± 41 sec/4 min | time of immobile phase (sec/4 min) ([3]; P.O., s.i.d. × 21 days, 7.5 mg/kg): 69 ± 45 sec/4 min | time of immobile phase (sec/4 min) ([3]; P.O., s.i.d. × 21 days, 15.0 mg/kg): 92 ± 66 sec/4 min | time of mobile phase vs. control (in words) ([3]; administration in 21 successive days): prolonged the mobile time significantly | anti-depression activity in forced swimming test (in words) ([3]; mice): has anti-depression activity | time of mobile phase vs. control (in words) ([3]; single dosing 1.5, 5, and 15 mg/kg): did not prolong the time of mobile phase | time of immobile phase (sec/4 min) ([3]; single dosing, P.O., 0.5 hr, 1.5 mg/kg): 93 ± 39 sec/4 min | time of immobile phase (sec/4 min) ([3]; single dosing, P.O., 0.5 hr, 5.0 mg/kg): 101 ± 52 sec/4 min | time of immobile phase (sec/4 min) ([3]; single dosing, P.O., 0.5 hr, 15.0 mg/kg): 97 ± 43 sec/4 min | time of mobile phase vs. control (in words) ([3]; three times a day, 1.5 mg/kg group): showed significance | time of mobile phase vs. control (in words) ([3]; three times a day, 0.5 and 5 mg/kg groups): did not show significance though prolonged the mobile time | observed reactions after single dose ([4]; intravenous injection 500 mg, mice): effect of calming, lying down, decreasing alarm reaction and without other abnormal reactions | toxicity in single dose toxicity test (in words) ([4]; mice): low toxicity and high safety coefficient | possible durable dosage ([4]; mouse, in vivo, po, 2 week): 2.4 g/kg | total time of staying on the opened arm (sec. in 5 min.) [5]: 9.6 sec. in 5 min.

melting point: 70 to 72 °C
Compound: CCCC[C@]1(O)CCC[C@@]2(C)CC[C@@H]3C[C@@]21OC3(C)C [Example 16, (1R,2S,6S,9R)6,10,10-Trimethyl-2-butyl-2-hydroxy-11-oxatricyclo[7.2.1.0^1,6]dodecane]

melting point: 47 to 48 °C
Compound: CCCC[C@H]1[C@@H](O)CC[C@@]2(C)CC[C@@H]3C[C@]12OC3(C)C [Example 22, (1S,2S,3S,6R,9R)6,10,10-Trimethyl-2-butyl-3-hydroxy-11-oxatricyclo[7.2.1.0^1,6]dodecane]

melting point: 87 to 88 °C
Compound: CC1(C)O[C@]23C[C@H]1CC[C@]2(C)CCC=C3Cc1ccc(Cl)cc1 [Example 10, (1R,6S,9R)6,10,10-Trimethyl-2-(4-chlorobenzyl)-11-oxatricyclo[7.2.1.0^1,6]dodec-2-ene]
